These results are taken from patent US10456407B2, “Combination therapy for treating cancer” (Epizyme, Inc., priority 2015, dated 2019).

This test has as its system SU-DHL10 cells. In words: RT2 Glucocorticoid signaling PCR array, SU-DHL10 (SUDHL10) cell line (Table 4d). Format: cell-based. To be noted: SUDHL10, 4 days, vs DMSO. The source says: Expression levels of (A). Sestrin; (B). TNF and (C) GILZ normalized to DMSO controls for each cell line with the indicated single agent or combination.

As for `CCN(c1cc(-c2ccc(CN3CCOCC3)cc2)cc(C(=O)NCc2c(C)cc(C)[nH]c2=O)c1C)C1CCOCC1` [Compound 44], the “ADARB1 ΔΔCT” value is listed as 0.073, the “AK2 ΔΔCT” value was −0.101, the “ARIDS8 ΔΔCT” value is given as 0.650 and the “ASPH ΔΔCT” value is 0.296. For the same compound, the “CEBPA ΔΔCT” value is given as −1.026, the “DDIT4 ΔΔCT” value was 1.444, the “H6PD ΔΔCT” value was 1.221 and the “LOX ΔΔCT” value is reported as 1.164. Further, the “NR3C1 ΔΔCT” value came to 0.527, the “PER2 ΔΔCT” value amounted to 0.441, the “SPHK1 ΔΔCT” value was determined as 0.231 and the “STAT5B ΔΔCT” value turned out to be 0.027. The “TNF ΔΔCT” value is −0.204 and the “VDR ΔΔCT” value is given as −0.714.
For the compound `C[C@]12C=CC(=O)C=C1CC[C@@H]1[C@@H]2[C@@H](O)C[C@@]2(C)[C@H]1CC[C@]2(O)C(=O)CO` [Prednisolone, prednisolone], the “ADARB1 ΔΔCT” value was 2.234, the “AK2 ΔΔCT” value is −0.345, the “ARIDS8 ΔΔCT” value was determined as 1.603 and the “ASPH ΔΔCT” value is given as 0.169. Besides, the “CEBPA ΔΔCT” value was 0.784, the “DDIT4 ΔΔCT” value was −1.212, the “H6PD ΔΔCT” value is 0.844 and the “LOX ΔΔCT” value was −0.505. In addition, the “NR3C1 ΔΔCT” value was 0.256, the “PER2 ΔΔCT” value is listed as −0.204, the “SPHK1 ΔΔCT” value is on record as −0.279 and the “STAT5B ΔΔCT” value is recorded as 0.719. For the same compound, the “TNF ΔΔCT” value was determined as 0.221 and the “VDR ΔΔCT” value is listed as −0.245.
